In US20250332212A1, “METHOD FOR TREATING OR PREVENTING ALOPECIA” (Suzhou Mingren Pharmaceutical Biotechnology Co., Ltd., priority 2024, published 2025):

Legend:
[1] = biological target: type II 5α-reductase (Homo sapiens, UniProt P31213); conditions: in serum and scalp; cited from earlier work
[2] = background statement; cited from earlier work
[3] = test system: SP1, Wnt10a, Wnt10b and β-catenin; assay: Immunoblotting of SP1 and downstream molecules in skin, Animal model III; format: in vivo, mouse; conditions: dorsal skin
Description: 4.1) Protein extraction: 70 mg of skin tissue was placed in a 1.5 mL centrifuge tube, and 500 μL of tissue lysate RIPA containing protease inhibitor and phosphatase inhibitor was added. The tissue was placed on an ice box, pulverized by a tissue grinder, and then ultrasonically crushed to obtain a tissue suspension, which was then placed in a rotary windmill at 4° C. to be lysed for 2 h. The centrifuge was set at 12,000×g, 4° C., centrifuged for 15 min, and the supernatant was collected as the total protein.
5.1) Heating of protein samples: the total protein content of each tissue was 50 μg; calculate the volume of a corresponding protein sample, make up the volume with saline to 16 μL, then add 4 μL of 5×SDS sampling buffer, heat at 100° C. for 5 min, and then cool at room temperature and store at −20° C.
5.7) Primary antibody incubation: the cut protein bands were placed into the corresponding primary antibody and incubated at 4° C. on a shaker overnight, washed with TBST 3 times for 10 min/time.

[4] = test system: TP-induced AGA model mice; assay: TP-induced AGA model, Animal model III (specific inhibition of SP1 by MTA); format: in vivo, C57BL/6J male mice; conditions: MTA 0.3 mg/kg/d intraperitoneally with 1% JP1
Excerpt: To verify that JP1 promotes AGA follicle regeneration through the activation of the Wnt/β-catenin signaling pathway via the MAPK/E2F1/SP1 signaling axis, the example constructed a mouse model of AGA with specific inhibition of SP1 (FIG. 15A). The specific experimental details are described according to “Animal model III” of “1. TP-induced AGA model” in “Experimental Methods”.
To further confirm that JP1 promotes the growth of hair follicles on the back of AGA model mice through the SP1-regulated Wnt/β-catenin signaling pathway at the histomorphometric level, H&E staining was performed on the skin tissues of the model mice of Example 15 at different time points (days 4, 8, and 12 post-intervention).
The mice used in this study were 5-week-old C57BL/6J male mice (18-20 g), which were purchased from Jiangsu Jicui Pharmachem Biotechnology Co. All the animals used in the experiments were housed in the SPF-level environment of the Medical Laboratory Animal Center of Nanjing Medical University, and the relevant animal experimental operations were approved by the Animal Ethics Committee of Nanjing Medical University. The control group was left untreated, and the other groups were injected with TP subcutaneously on their backs every day. Two weeks later, the hair on the backs of the mice was shaved with an electric razor, covering an area of 2 cm×4 cm, and then the residual hair was removed with a hair removal cream. The subcutaneous injections of TP on the shaved backs of the mice in the AGA model was continued until the end of the experimental period, and the administration of TP in each of the treatment groups was begun on the 1st day of the dehairing process.
In addition to the normal control group (denoted as control) n=20, all mice injected subcutaneously with TP were randomly divided into the following groups (n=20): the model group (denoted as model), the 1% JP1 (skin-coated), and the 1% JP1+MTA group. […] MTA was administered at a dose of 0.3 mg/kg/d, qd, intraperitoneally, 100 μL/dose.
Mice were weighed every two days during the experiment. Skin color was assessed against skin score charts. The mice were euthanized and treated at the end of the experiment, and skin tissues were taken from the dorsal decorticated area of the mice. Some of the tissues were fixed with 4% paraformaldehyde solution and then paraffin sections were made for H&E or immunofluorescence staining, etc., and some of the tissues were stored in the refrigerator at −80° C. for relevant molecular expression assays (qRT-PCR, Western Blot, IP, etc.).
8.1) Sampling and fixation: After the experiment, skin tissue was taken from the depilated area on the back of the mouse and placed in a 10 mL EP tube. 4% paraformaldehyde was added to the EP tube, and all tissues were immersed to denature and coagulate the proteins of the skin tissue. The original morphology and structure of the cells were maintained.
8.6) H&E staining: the sections pretreated in distilled water were put into aqueous hematoxylin solution for a few minutes for staining. The color was separated in acid water and ammonia for a few seconds each. After rinsing in running water for 1 h, the sections were placed in distilled water for a few moments. The sections were dehydrated in 70% and 90% alcohol for 10 min each, and stained in alcoholic eosin stain for 2-3 min.

type II 5α-reductase, sequence (P31213 whole entry): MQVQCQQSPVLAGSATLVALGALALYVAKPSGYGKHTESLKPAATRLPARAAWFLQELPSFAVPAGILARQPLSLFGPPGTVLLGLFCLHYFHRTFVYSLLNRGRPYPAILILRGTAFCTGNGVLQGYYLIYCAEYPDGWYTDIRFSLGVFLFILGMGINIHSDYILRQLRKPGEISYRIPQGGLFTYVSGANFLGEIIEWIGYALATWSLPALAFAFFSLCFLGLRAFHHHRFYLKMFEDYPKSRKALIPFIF

Compound: CC(C)(C)NC(=O)[C@H]1CC[C@H]2[C@@H]3CC[C@H]4NC(=O)C=C[C@]4(C)[C@H]3CC[C@]12C [finasteride]
- reduction of double hydrogen testosterone (DHT) [1]: more than 60%

Compound: Nc1cc(N2CCCCC2)nc(N)[n+]1[O-] [minoxidil]
- adverse reactions [2]: itchiness of the scalp, dermatitis, and localized hirsutism

Compound: Mithramycin A [MTA, reference compound]
- effect of MTA on JP1-induced expression of SP1 downstream molecules [3]: block the effect of JP1 on the expression of SP1 downstream molecules
- effect of SP1 inhibition on hair follicle growth promotion by JP1 [4]: blocked the hair follicle growth-promoting effect of JP1
